Data reported in US10472352B2, “Rac inhibitors” (Geneyus LLC, priority 2017, dated 2019).

What was measured:
[1] = tested on: MCF-7 human breast cancer cell line; assay: Cell Viability Assay (MCF7), PrestoBlue; assay type: cell-based; conditions: MCF7, 72 h, MCF-7 cells, three days after drug treatment
Protocol: In order to determine a compound's effect on cell viability, PrestoBlue assays were performed as previously described by Kuhn et al. (2013) with modifications. MCF-7 human breast cancer and IGR-1 human melanoma cell lines were seeded into 96-well plates 24 hours prior to addition of drug. Cells were treated with 0 to 200 μM (11 concentrations) of compound solubilized in DMSO, adjusting the final concentration of DMSO to 1% in the well. Three days after drug treatment, cell viability was measured by adding PrestoBlue (Life Technologies Ltd.; cat. No. A13262) reagent directly to wells containing media/drug to reach a final concentration of 10%. PrestoBlue is a modified molecule of the common Alamar Blue probe used to determine viability based on the ability of a cell to metabolize a nonfluorescent compound (resazurin) to a florescent molecule (resorufin). Following a 1 hour incubation period, total well fluorescence was measured using the microplate reader M1000 pro (Tecan) with excitation 560-5 nm and emission 590-5 nm. […] The percentage of living cells was then computed by comparison with control wells. Kuhn, Jonas et al., Assay and Drug Development Technologies, March 2013, Label-Free Cytotoxicity Screening Assay by Digital Holographic Microscopy.

Rac1 protein = target: T1, Rac1 protein (Homo sapiens, UniProt P63000); assay: Fluorescence Polarization Assay (Rac1 FP); assay type: binding; conditions: 125 nM his-tagged Rac1, 12.5 nM Bodipy-TR GTPγS, 30 minutes at 37° C.
T1 construct: purchased Cytoskeleton Inc. RC01
Protocol: Direct binding of Rac1 compound inhibitors to Rac1 protein was performed using fluorescence polarization (FP). Briefly, Rac1 inhibitors were initially dissolved in DMSO and then serial drug dilutions in exchange buffer (20 mM Tris pH 7.5, 50 mM NaCl, 1 mM MgCl, 1 mM EDTA) were prepared in a flat black 96-well half-area plate (Greiner). Recombinant his-tagged Rac1 protein (Cytoskeleton Inc. Cat. # RC01) was added to the inhibitors at a final concentration of 125 nM along with 12.5 nM Bodipy-TR GTPγS (Life Technologies Inc. Cat. # G35780) in exchange buffer and incubated for 30 minutes at 37° C. in exchange buffer. After 30 minutes of incubation. FP was measured on the M1000 Pro (Tecan) fluorescent plate reader with 590 nm±5 nm excitation and 625 nm±5 nm emission spectra settings.

[2] = target: His-Rac1 / GST-PBD (PAK Binding Domain) (Homo sapiens, UniProt P63000); assay: Rac Activation AlphaScreen Assay (Rac1 AS); assay type: biochemical; conditions: 500 nM GTPγS, 37° C., 1 hour; 'positive' = signal generated was higher than the positive control
Protocol: AlphaScreen® assays were performed in 96-well microplates in a final reaction volume of 60 μl. Recombinant His-Rac1, recombinant GST-PBD (PAK Binding Domain), donor and acceptor beads (PerkinElmer), and inhibitors were incubated in exchange buffer (20 mM Tris pH 7.5, 50 mM NaCl, 1 mM MgCl2, 1 mM EDTA, 500 nM GTPγS (guanosine 5′-[γ-thio]triphosphate)) at 37° C. Readings were performed on a Tecan M1000 pro microplate reader after 1 hour.

[3] = tested on: BT474 breast cancer cells; assay: BT474 Four (4) Day Cell Viability Assay; assay type: cell-based; conditions: BT474, 4 days, 32661 0 μM, fulvestrant 0.0 nM
Protocol: BT474 breast cancer cells that are Estrogen Receptor Positive and HER2+ were grown in 5% cFBS. 5,000 cells were seeded into each well of a 96-well plate and treated with escalating doses of lapatinib, fulvestrant, and 32661.

Compound `FC(F)(F)c1ccc2c(SCCCCCCn3cncc3CN3CCOCC3)ccnc2c1` [Compound 0032662, 4-({6-[5-(morpholin-4-ylmethyl)-1H-imidazol-1-yl]hexyl}sulfanyl)-7-(trifluoromethyl) quinoline] has an IC50 [1] of 19.1 µM, an IC50 (Rac1 protein) of 2.33 µM and an IC50 [2] of 16.6 µM.
For `FC(F)(F)c1ccc2c(SCc3cccc(Cn4cc(CN5CCOCC5)nn4)c3)ccnc2c1` [Compound 0032731, 4-[{(3-{[4-(morpholin-4-ylmethyl)-1H-1,2,3-triazol-1-yl]methyl}phenyl)methyl]sulfanyl)-7-(trifluoromethyl) quinoline], the IC50 [1] was 9.1 µM, the IC50 (Rac1 protein) was 5.16 µM and the IC50 [2] was 24.1 µM.
Compound `FC(F)(F)c1ccc2c(SCCCCCCNc3cccc(N4CCNCC4)c3)ccnc2c1` [Compound 0033235, 3-piperazin-1-yl-N-[6-[[7-(trifluoromethyl)-4-quinolyl]sulfanyl]hexyl]aniline] has an IC50 [1] of 3.6 µM, an IC50 (Rac1 protein) of 4.81 µM and an IC50 [2] of 1.1 µM.
`OC(c1ccccc1)c1cn(CCCCCCSc2ccnc3cc(C(F)(F)F)ccc23)cn1` (stereo not shown) [Compound 0033043, phenyl[1-(6-{[7-(trifluoromethyl)quinolin-4-yl]sulfanyl}hexyl)-1H-imidazol-4-yl]methanol] gave an IC50 [1] of 7.8 µM, an IC50 (Rac1 protein) of 100 µM and an IC50 [2] of 9.6 µM.
`Cc1ccc(NCc2cn(CCCCCCSc3ccnc4cc(C(F)(F)F)ccc34)cn2)cc1` [Compound 0032880, 4-methyl-N-{[1-(6-{[7-(trifluoromethyl)quinolin-4-yl]sulfanyl)hexyl}-1H-imidazol-4-yl]methyl)aniline] was tested, and the IC50 [1] was 6.3 µM, the IC50 (Rac1 protein) was 1 µM and the IC50 [2] was 3.2 µM.
For `FC(F)(F)c1ccc2c(SCCCCCCCn3cc(CN4CCOCC4)nn3)ccnc2c1` [Compound 0032371, 4-({7-[4-(morpholin-4-ylmethyl)-1H-1,2,3-triazol-1-yl]heptyl}sulfanyl)-7-(trifluoromethyl) quinoline], the IC50 [1] was 11.3 µM, the IC50 (Rac1 protein) was 3.73 µM and the IC50 [2] was 62 µM.
In the case of `COCCN(Cc1cn(CCCCCCSc2ccnc3cc(C(F)(F)F)ccc23)nn1)C(=O)OC(C)(C)C` [Compound 0032621, tert-butyl N-(2-methoxyethyl)-N-{[1-(6-{[7-(trifluoromethyl)quinolin-4-yl]sulfanyl}hexyl)-1H-1,2,3-triazol-4-yl]methyl}carbamate], the IC50 [1] is reported as 9.34 µM, the IC50 (Rac1 protein) is reported as 1.48 µM and the “Rac1 AS IC50(uM)” value [2] is reported as “positive”.
Compound `CN(Cc1cn(CCCCCCSc2ccnc3cc(C(F)(F)F)ccc23)cn1)c1ccccc1` [Compound 0032887, N-methyl-N-{[1-(6-{[7-(trifluoromethyl)quinolin-4-yl]sulfanyl)hexyl}-1H-imidazol-4-yl]methyl}aniline] has an IC50 [1] of 11.8 µM, an IC50 (Rac1 protein) of 1.18 µM and an IC50 [2] of 4.7 µM.
Compound `FC(F)(F)c1ccc2c(SCCCCCNc3ccc(N4CCNCC4)cc3)ccnc2c1` [Compound 0033240, 4-(piperazin-1-yl)-N-(5-{[7-(trifluoromethyl)quinolin-4-yl]sulfanyl}pentyl)aniline] has an IC50 [1] of 3.8 µM, an IC50 (Rac1 protein) of 9.67 µM and an IC50 [2] of 0.98 µM.
For `CS(=O)(=O)CCNCc1ccc(-c2ccc3ncnc(Nc4ccc(OCc5cccc(F)c5)c(Cl)c4)c3c2)o1` [Lapatinib, lapatinib, reference compound], the cellular viability ([3]; lapatinib 6.9 nM) was 99%, the cellular viability ([3]; lapatinib 20.6 nM) was 96% and the cellular viability ([3]; lapatinib 61.7 nM) was 80%. It also gave a cellular viability ([3]; lapatinib 185.2 nM) of 75%, a cellular viability ([3]; lapatinib 555.6 nM) of 77% and a cellular viability ([3]; lapatinib 1666.7 nM) of 68%. The cellular viability ([3]; lapatinib 3333.0 nM) was 60%.
For `FC(F)(F)c1ccc2c(SCCCCCOc3ccc(CN4CCOCC4)nc3)ccnc2c1` [Compound 0031778, 4-[(5-{[6-(morpholin-4-ylmethyl)pyridin-3-yl]oxy}pentyl)sulfanyl]-7-(trifluoromethyl)quinoline], the IC50 [1] was 4.86 µM, the IC50 (Rac1 protein) was 1.24 µM and the “Rac1 AS IC50(uM)” value [2] was “positive”.
Compound `O=C1CNCCN1c1ccc(NCCCCCCSc2ccnc3cc(C(F)(F)F)ccc23)cc1` [Compound 0033283, 1-{4-[(6-{[7-(trifluoromethyl)quinolin-4-yl]sulfanyl)hexyl}amino]phenyl} piperazin-2-one] has an IC50 [1] of 5.6 µM, an IC50 (Rac1 protein) of 3.07 µM and an IC50 [2] of 6.3 µM.
Compound `FC(F)(F)c1ccc2c(SCCCCCCNc3ccc(N4CCNCC4)cc3)ccnc2c1` [Compound 0033102, 4-(piperazin-1-yl)-N-(6-{[7-(trifluoromethyl)quinolin-4-yl]sulfanyl}hexyl)aniline] has an IC50 [1] of 3.8 µM, an IC50 (Rac1 protein) of 9.66 µM and an IC50 [2] of 0.383 µM.
`COc1ccc(NCc2cn(CCCCCCSc3ccnc4cc(C(F)(F)F)ccc34)cn2)cc1` [Compound 0032881, 4-methoxy-N-{[1-(6-{[7-(trifluoromethyl)quinolin-4-yl]sulfanyl}hexyl)-1H-imidazol-4-yl]methyl}aniline] gave an IC50 [1] of 6.8 µM, an IC50 (Rac1 protein) of 0.249 µM and an IC50 [2] of 6 µM.
For `O=C(NCc1cn(CCCCCCSc2ccnc3cc(C(F)(F)F)ccc23)nn1)C1CCCCC1` [Compound 0032896, N-{[1-(6-{[7-(trifluoromethyl)quinolin-4-yl]sulfanyl}hexyl)-1H-1,2,3-triazol-4-yl]methyl} cyclohexane-carboxamide], the IC50 [1] was 13.8 µM, the IC50 (Rac1 protein) was 4.76 µM and the “Rac1 AS IC50(uM)” value [2] was “positive”.
For `NC1CCN(c2ccc(NCCCCCCSc3ccnc4cc(C(F)(F)F)ccc34)cc2)CC1` [Compound 0033278, 1-{4-[(6-{[7-(trifluoromethyl)quinolin-4-yl]sulfanyl}hexyl)amino]phenyl} piperidin-4-amine], the IC50 [1] was 7.6 µM, the IC50 (Rac1 protein) was 2.32 µM and the IC50 [2] was 1.1 µM.
`Fc1ccc2c(SCCCCCCn3cnc(CNc4ccccc4)c3)ccnc2c1` [Compound 0033042, N-{(1-(6-[(7-fluoroquinolin-4-yl)sulfanyl]hexyl}-1H-imidazol-4-yl}methyl] aniline] was tested, and the IC50 [1] was 9 µM, the IC50 (Rac1 protein) was 2.35 µM and the IC50 [2] was 7.2 µM.
With `FC(F)(F)c1ccc2c(SCCCCCCn3cnc(CNc4ccccc4)c3)ccnc2c1` [Compound 0032886, N-{[1-(6-{[7-(trifluoromethyl)quinolin-4-yl]sulfanyl)hexyl}-1H-imidazol-4-yl]methyl} aniline] the IC50 [1] was 7.8 µM, the IC50 (Rac1 protein) was 2.04 µM and the IC50 [2] was 4.4 µM.
For `COc1ccc(N2CCN(Cc3cn(CCCCCCSc4ccnc5cc(C(F)(F)F)ccc45)nn3)CC2)cc1` [Compound 0032956, 4-{[6-(4-{[4-(4-methoxyphenyl)piperazin-1-yl]methyl}-1H-1,2,3-triazol-1-yl)hexyl]sulfanyl}-7-(trifluoromethyl) quinoline], the IC50 [1] was 10.7 µM, the IC50 (Rac1 protein) was 1.41 µM and the IC50 [2] was 8.2 µM.
Work on `FC(F)(F)c1ccc2c(SCCCCCCn3ccc(CN4CCOCC4)n3)ccnc2c1` [Compound 0032897, 4-({6-[3-(morpholin-4-ylmethyl)-1H-pyrazol-1-yl]hexyl}sulfanyl)-7-(trifluoromethyl) quinoline] yielded an IC50 [1] of 11.6 µM, an IC50 (Rac1 protein) of 2.79 µM and an IC50 [2] of 35 µM.
With `Fc1ccc2c(SCCCCCCn3cc(CN4CCOCC4)nn3)ccnc2c1` [Compound 0032833, 7-fluoro-4-{(6-[4-(morpholin-4-ylmethyl)-1H-1,2,3-triazol-1-yl]hexyl}sulfanyl) quinoline] the IC50 [1] was 7.8 µM, the IC50 (Rac1 protein) was 4.32 µM and the “Rac1 AS IC50(uM)” value [2] was “positive”.
`FC(F)(F)c1ccc2c(SCCCCCCNc3ccc(N4CCOCC4)cc3)ccnc2c1` [Compound 0033200, 4-(morpholin-4-yl)-N-(6-{[7-(trifluoromethyl)quinolin-4-yl]sulfanyl}hexyl)aniline] showed an IC50 [1] of 10.8 µM, an IC50 (Rac1 protein) of 0.71 µM and an IC50 [2] of 2.3 µM.
